The koff is a measure of how fast the partners let go of each other.

The source of these data is BindingDB's records for doi:10.1016/j.ejmech.2021.113889 (China Pharmaceutical University, 2021).

This experiment deals with Glycogen synthase kinase-3 beta (Homo sapiens, UniProt P49841). Nature of the experiment: Binding affinity to recombinant GSK3beta (unknown origin) assessed as dissociation rate constant upto 0.00975 uM by SPR analysis. A general note: Surface plasmon resonance follows binding to a sensor surface in real time, without labels.
Glycogen synthase kinase-3 beta, sequence (P49841 whole entry): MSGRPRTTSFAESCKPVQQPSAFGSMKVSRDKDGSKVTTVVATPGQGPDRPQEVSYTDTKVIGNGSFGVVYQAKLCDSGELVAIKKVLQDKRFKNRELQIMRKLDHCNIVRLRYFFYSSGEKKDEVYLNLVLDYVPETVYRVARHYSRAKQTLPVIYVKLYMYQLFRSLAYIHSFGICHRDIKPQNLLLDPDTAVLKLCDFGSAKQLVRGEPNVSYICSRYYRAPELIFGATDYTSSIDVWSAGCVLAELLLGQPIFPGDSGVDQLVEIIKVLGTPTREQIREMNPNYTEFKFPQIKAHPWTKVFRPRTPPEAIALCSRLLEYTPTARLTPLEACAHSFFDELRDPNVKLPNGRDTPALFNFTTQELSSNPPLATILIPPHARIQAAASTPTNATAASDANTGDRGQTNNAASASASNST

Each structure is given as a SMILES string.

In the case of `Nc1ncc(-c2ccc(S(=O)(=O)N3CCN(CCCCc4cn(CCOCCOCCOCCOCCOCCNc5cccc6c5C(=O)N(C5CCC(=O)NC5=O)C6=O)nn4)CC3)cc2)nc1C(=O)Nc1cccnc1` (stereo unspecified), the koff amounted to 0.0253 s⁻¹.
